Results: ChEMBL document CHEMBL5724806, “Unraveling interindividual differences and functional consequences of gut microbial metabolism of immunosuppressants” (2024)

Assays:
Assay type in all cases: ADME
[1] = (§1) The drug is tested on the gut metagenome community of A-03 with ENA study accession number: PRJEB31790 for biotransformation under anaerobic condition. The drug concentrations were measured over 7 timepoints collected between 0 and 12 hours of incubation by liquid-chromatography-coupled mass spectrometry (LC–MS); set-up: dose 5 uM, timepoint 0, 0.75, 1.5, 3, 6, 9, 12 hours; settings: 5 µM
[2] = The drug is tested on Enterococcus faecalis strain: ATCC29212 for biotransformation under microaerobic condition. The drug concentrations were measured over 6 timepoints collected between 0 and 12 hours of incubation by liquid-chromatography-coupled mass spectrometry (LC–MS); set-up: dose 5 uM, timepoint 0, 1.5, 3, 6, 9, 12 hours; settings: 5 µM
[3] = The drug is tested on Streptococcus sanguinis strain: DSM20567 for biotransformation under anaerobic condition. The drug concentrations were measured over 6 timepoints collected between 0 and 12 hours of incubation by liquid-chromatography-coupled mass spectrometry (LC–MS); set-up: dose 5 uM, timepoint 0, 1.5, 3, 6, 9, 12 hours; settings: 5 µM
[4] = The drug is tested on Bacteroides uniformis strain: DSM6597 for biotransformation under anaerobic condition. The drug concentrations were measured over 6 timepoints collected between 0 and 12 hours of incubation by liquid-chromatography-coupled mass spectrometry (LC–MS); set-up: dose 5 uM, timepoint 0, 1.5, 3, 6, 9, 12 hours; settings: 5 µM
[5] = The drug is tested on Lactobacillus fermentum strain: DSM20052 for biotransformation under microaerobic condition. The drug concentrations were measured over 6 timepoints collected between 0 and 12 hours of incubation by liquid-chromatography-coupled mass spectrometry (LC–MS); set-up: dose 5 uM, timepoint 0, 1.5, 3, 6, 9, 12 hours; settings: limosilactobacillus fermentum, 5 µM
[6] = The drug is tested on Coprococcus comes strain: ATCC27758 for biotransformation under anaerobic condition. The drug concentrations were measured over 6 timepoints collected between 0 and 12 hours of incubation by liquid-chromatography-coupled mass spectrometry (LC–MS); set-up: dose 5 uM, timepoint 0, 1.5, 3, 6, 9, 12 hours; settings: 5 µM
[7] = The drug is tested on Dorea formicigenerans strain: DSM3992 for biotransformation under anaerobic condition. The drug concentrations were measured over 6 timepoints collected between 0 and 12 hours of incubation by liquid-chromatography-coupled mass spectrometry (LC–MS); set-up: dose 5 uM, timepoint 0, 1.5, 3, 6, 9, 12 hours; settings: 5 µM
[8] = as §1, with “A-06” for “A-03”, “microaerobic” for “anaerobic”; set-up: dose 5 uM, timepoint 0, 0.75, 1.5, 3, 6, 9, 12 hours; settings: 5 µM
[9] = The drug is tested on Bifidobacterium longum strain: DSM20088 for biotransformation under microaerobic condition. The drug concentrations were measured over 6 timepoints collected between 0 and 12 hours of incubation by liquid-chromatography-coupled mass spectrometry (LC–MS); set-up: dose 5 uM, timepoint 0, 1.5, 3, 6, 9, 12 hours; settings: 5 µM
[10] = The drug is tested on Odoribacter splanchnicus strain: DSM20712 for biotransformation under anaerobic condition. The drug concentrations were measured over 6 timepoints collected between 0 and 12 hours of incubation by liquid-chromatography-coupled mass spectrometry (LC–MS); set-up: dose 5 uM, timepoint 0, 1.5, 3, 6, 9, 12 hours; settings: 5 µM
[11] = The drug is tested on Bacteroides caccae strain: DSM19024 for biotransformation under anaerobic condition. The drug concentrations were measured over 6 timepoints collected between 0 and 12 hours of incubation by liquid-chromatography-coupled mass spectrometry (LC–MS); set-up: dose 5 uM, timepoint 0, 1.5, 3, 6, 9, 12 hours; settings: 5 µM
[12] = as §1, with “T-03” for “A-03”; set-up: dose 5 uM, timepoint 0, 0.75, 1.5, 3, 6, 9, 12 hours; settings: 5 µM
[13] = The drug is tested on Lactobacillus gasseri strain: DSM20243 for biotransformation under microaerobic condition. The drug concentrations were measured over 6 timepoints collected between 0 and 12 hours of incubation by liquid-chromatography-coupled mass spectrometry (LC–MS); set-up: dose 5 uM, timepoint 0, 1.5, 3, 6, 9, 12 hours; settings: 5 µM
[14] = The drug is tested on Actinomyces naeslundi strain: DSM43013 for biotransformation under anaerobic condition. The drug concentrations were measured over 6 timepoints collected between 0 and 12 hours of incubation by liquid-chromatography-coupled mass spectrometry (LC–MS); set-up: dose 5 uM, timepoint 0, 1.5, 3, 6, 9, 12 hours; settings: actinomyces naeslundii, 5 µM
[15] = The drug is tested on Parabacteroides distasonis strain: DSM20701 for biotransformation under anaerobic condition. The drug concentrations were measured over 6 timepoints collected between 0 and 12 hours of incubation by liquid-chromatography-coupled mass spectrometry (LC–MS); set-up: dose 5 uM, timepoint 0, 1.5, 3, 6, 9, 12 hours; settings: 5 µM
[16] = The drug is tested on Actinomyces graevenitzii strain: DSM15540 for biotransformation under microaerobic condition. The drug concentrations were measured over 6 timepoints collected between 0 and 12 hours of incubation by liquid-chromatography-coupled mass spectrometry (LC–MS); set-up: dose 5 uM, timepoint 0, 1.5, 3, 6, 9, 12 hours; settings: 5 µM
[17] = The drug is tested on Streptococcus mitis strain: DSM12643 for biotransformation under microaerobic condition. The drug concentrations were measured over 6 timepoints collected between 0 and 12 hours of incubation by liquid-chromatography-coupled mass spectrometry (LC–MS); set-up: dose 5 uM, timepoint 0, 1.5, 3, 6, 9, 12 hours; settings: 5 µM
[18] = as §1, with “A-09” for “A-03”; set-up: dose 5 uM, timepoint 0, 0.75, 1.5, 3, 6, 9, 12 hours; settings: 5 µM
[19] = The drug is tested on Eubacterium hallii strain: DSM3353 for biotransformation under anaerobic condition. The drug concentrations were measured over 6 timepoints collected between 0 and 12 hours of incubation by liquid-chromatography-coupled mass spectrometry (LC–MS); set-up: dose 5 uM, timepoint 0, 1.5, 3, 6, 9, 12 hours; settings: anaerobutyricum hallii, 5 µM
[20] = The drug is tested on Clostridium bolteae strain: DSM15670 for biotransformation under anaerobic condition. The drug concentrations were measured over 6 timepoints collected between 0 and 12 hours of incubation by liquid-chromatography-coupled mass spectrometry (LC–MS); set-up: dose 5 uM, timepoint 0, 1.5, 3, 6, 9, 12 hours; settings: enterocloster bolteae, 5 µM
[21] = The drug is tested on Roseburia intestinalis strain: DSM14610 for biotransformation under anaerobic condition. The drug concentrations were measured over 6 timepoints collected between 0 and 12 hours of incubation by liquid-chromatography-coupled mass spectrometry (LC–MS); set-up: dose 5 uM, timepoint 0, 1.5, 3, 6, 9, 12 hours; settings: 5 µM
[22] = The drug is tested on Streptococcus anginosus strain: DSM20563 for biotransformation under anaerobic condition. The drug concentrations were measured over 6 timepoints collected between 0 and 12 hours of incubation by liquid-chromatography-coupled mass spectrometry (LC–MS); set-up: dose 5 uM, timepoint 0, 1.5, 3, 6, 9, 12 hours; settings: 5 µM
[23] = The drug is tested on Parabacteroides merdae strain: DSM19495 for biotransformation under anaerobic condition. The drug concentrations were measured over 6 timepoints collected between 0 and 12 hours of incubation by liquid-chromatography-coupled mass spectrometry (LC–MS); set-up: dose 5 uM, timepoint 0, 1.5, 3, 6, 9, 12 hours; settings: 5 µM
[24] = The drug is tested on Faecalibacterium prausnitzii strain: DSM17677 for biotransformation under anaerobic condition. The drug concentrations were measured over 6 timepoints collected between 0 and 12 hours of incubation by liquid-chromatography-coupled mass spectrometry (LC–MS); set-up: dose 5 uM, timepoint 0, 1.5, 3, 6, 9, 12 hours; settings: faecalibacterium duncaniae, 5 µM
[25] = The drug is tested on Blautia hansenii strain: DSM20583 for biotransformation under anaerobic condition. The drug concentrations were measured over 6 timepoints collected between 0 and 12 hours of incubation by liquid-chromatography-coupled mass spectrometry (LC–MS); set-up: dose 5 uM, timepoint 0, 1.5, 3, 6, 9, 12 hours; settings: 5 µM
[26] = The drug is tested on Escherichia coli strain: DSM27469 for biotransformation under microaerobic condition. The drug concentrations were measured over 6 timepoints collected between 0 and 12 hours of incubation by liquid-chromatography-coupled mass spectrometry (LC–MS); set-up: dose 5 uM, timepoint 0, 1.5, 3, 6, 9, 12 hours; settings: 5 µM
[27] = as §1, with “A-10” for “A-03”, “microaerobic” for “anaerobic”; set-up: dose 5 uM, timepoint 0, 0.75, 1.5, 3, 6, 9, 12 hours; settings: 5 µM
[28] = The drug is tested on Streptococcus mitis strain: DSM12643 for biotransformation under anaerobic condition. The drug concentrations were measured over 6 timepoints collected between 0 and 12 hours of incubation by liquid-chromatography-coupled mass spectrometry (LC–MS); set-up: dose 5 uM, timepoint 0, 1.5, 3, 6, 9, 12 hours; settings: 5 µM

| Bacterial Biotransformation [1] | Bacterial Biotransformation [2] | Bacterial Biotransformation [3] | Bacterial Biotransformation [4] | Bacterial Biotransformation [5] | Bacterial Biotransformation [6] | Bacterial Biotransformation [7] | Bacterial Biotransformation [8] | Bacterial Biotransformation [9] | Bacterial Biotransformation [10] | Bacterial Biotransformation [11] | Bacterial Biotransformation [12] | Bacterial Biotransformation [13] | Bacterial Biotransformation [14] | Bacterial Biotransformation [15] | Bacterial Biotransformation [16] | Bacterial Biotransformation [17] | Bacterial Biotransformation [18] | Bacterial Biotransformation [19] | Bacterial Biotransformation [20] | SMILES | also measured |
| --- | --- | --- | --- | --- | --- | --- | --- | --- | --- | --- | --- | --- | --- | --- | --- | --- | --- | --- | --- | --- | --- |
| Compound metabolized | Compound NOT metabolized | Compound NOT metabolized | Compound NOT metabolized | Compound NOT metabolized | Compound NOT metabolized | Compound NOT metabolized | Compound metabolized | Compound NOT metabolized | Compound NOT metabolized | Compound NOT metabolized | Compound NOT metabolized | Compound NOT metabolized | Compound NOT metabolized | Compound NOT metabolized | Compound NOT metabolized | Compound NOT metabolized | Compound metabolized | Compound NOT metabolized | Compound NOT metabolized | C[C@H]1C[C@@H]2[C@H]([C@@H](O)C[C@@]3(C)[C@H]2CC[C@]3(O)C(=O)CO)[C@@]2(C)C=CC(=O)C=C12 [METHYLPREDNISOLONE] | Bacterial Biotransformation [21]: Compound NOT metabolized; Bacterial Biotransformation [22]: Compound NOT metabolized; Bacterial Biotransformation [23]: Compound NOT metabolized; Bacterial Biotransformation [24]: Compound NOT metabolized; Bacterial Biotransformation [25]: Compound NOT metabolized; Bacterial Biotransformation [26]: Compound NOT metabolized; Bacterial Biotransformation [27]: Compound metabolized; Bacterial Biotransformation [28]: Compound NOT metabolized |
| Compound metabolized | Compound metabolized | Compound metabolized | Compound metabolized | Compound metabolized | Compound NOT metabolized | Compound NOT metabolized | Compound metabolized | Compound NOT metabolized | Compound NOT metabolized | Compound metabolized | Compound metabolized | Compound NOT metabolized | Compound metabolized | Compound metabolized | Compound metabolized | Compound metabolized | Compound metabolized | Compound NOT metabolized | Compound NOT metabolized | COc1c(C)c2c(c(O)c1C/C=C(\C)CCC(=O)OCCN1CCOCC1)C(=O)OC2 [MYCOPHENOLATE MOFETIL] | Bacterial Biotransformation [21]: Compound NOT metabolized; Bacterial Biotransformation [22]: Compound metabolized; Bacterial Biotransformation [23]: Compound metabolized; Bacterial Biotransformation [24]: Compound metabolized; Bacterial Biotransformation [25]: Compound NOT metabolized; Bacterial Biotransformation [26]: Compound metabolized; Bacterial Biotransformation [27]: Compound metabolized; Bacterial Biotransformation [28]: Compound metabolized |
| Compound NOT metabolized | Compound NOT metabolized | Compound NOT metabolized | Compound NOT metabolized | Compound NOT metabolized | Compound NOT metabolized | Compound NOT metabolized | Compound NOT metabolized | Compound NOT metabolized | Compound NOT metabolized | Compound NOT metabolized | Compound NOT metabolized | Compound NOT metabolized | Compound NOT metabolized | Compound NOT metabolized | Compound NOT metabolized | Compound NOT metabolized | Compound NOT metabolized | Compound NOT metabolized | Compound NOT metabolized | COc1c(C)c2c(c(O)c1C/C=C(\C)CCC(=O)O)C(=O)OC2 [MYCOPHENOLIC ACID] | Bacterial Biotransformation [21]: Compound NOT metabolized; Bacterial Biotransformation [22]: Compound NOT metabolized; Bacterial Biotransformation [23]: Compound NOT metabolized; Bacterial Biotransformation [24]: Compound NOT metabolized; Bacterial Biotransformation [25]: Compound NOT metabolized; Bacterial Biotransformation [26]: Compound NOT metabolized; Bacterial Biotransformation [27]: Compound NOT metabolized; Bacterial Biotransformation [28]: Compound NOT metabolized |
